This passage reports EC50 results from patent US10059713B2 (Takeda Pharmaceutical Company Limited, priority 2014, dated 2018).

The target in this assay is human GPR43 (Homo sapiens (Human), UniProt O15552). As to the kind of experiment: Ca-Flux functional assay: determination of agonist/positive allosteric modulator (PAM) activity. The following applies: CHO-K1 Gα16 cells stably expressing human GPR43; compound added with EC20 sodium acetate; intracellular Ca2+ by FLIPR; does not distinguish agonist from PAM. In kind it is cell-based. In short, it runs like this: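 CHO-K1 Gα16 cells stably expressing human GPR43, loaded with Calcium 5 dye 1 h; compounds (10-point half-log from 10 μM) added with sodium acetate at EC20. FLIPR calcium signal gave EC50, two wells per point; agonists and PAMs not distinguished.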
human GPR43, sequence (O15552 whole entry): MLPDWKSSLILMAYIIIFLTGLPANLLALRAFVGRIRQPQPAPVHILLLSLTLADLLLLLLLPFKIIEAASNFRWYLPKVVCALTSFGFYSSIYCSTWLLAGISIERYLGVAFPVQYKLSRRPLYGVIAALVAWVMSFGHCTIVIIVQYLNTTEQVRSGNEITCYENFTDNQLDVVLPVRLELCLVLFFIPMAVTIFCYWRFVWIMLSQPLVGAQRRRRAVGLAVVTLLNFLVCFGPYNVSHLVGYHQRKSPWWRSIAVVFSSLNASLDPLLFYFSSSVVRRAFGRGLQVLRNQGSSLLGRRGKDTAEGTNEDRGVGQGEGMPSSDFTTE
By EC50 is commonly meant the concentration giving half of the maximal effect. Read a high EC50 as a less potent agent. For `Cc1nc(N2CCO[C@H](C(F)(F)F)C2)c2[nH]c(N)c(S(=O)(=O)c3ccccc3F)c2n1` [Example 281, 7-(2-fluorobenzenesulfonyl)-2-methyl-4-[(2S)-2-(trifluoromethyl)morpholin-4-yl]-5H-pyrrolo[3,2-d]pyrimidin-6-amine], it took 1 nM to reach a half-maximal effect (EC50).
As to `COc1ccc(S(=O)(=O)c2c(N)[nH]c3c(N4CCO[C@H](C(F)(F)F)C4)nc(C)nc23)c(F)c1` [Example 282, 7-(2-fluoro-4-methoxybenzenesulfonyl)-2-methyl-4-[(2S)-2-(trifluoromethyl)morpholin-4-yl]-5H-pyrrolo[3,2-d]pyrimidin-6-amine], the concentration giving a half-maximal response (EC50) turned out to be 1 nM.
In turn, `Cc1nc(N2CCO[C@H](C(F)(F)F)C2)c2[nH]c(N)c(S(=O)(=O)c3ccc(F)cc3F)c2n1` [Example 283, 7-(2,4-difluorobenzenesulfonyl)-2-methyl-4-[(2S)-2-(trifluoromethyl)morpholin-4-yl]-5H-pyrrolo[3,2-d]pyrimidin-6-amine] yielded an EC50 of 1 nM.
`Cc1nc(N2CCO[C@H](C(F)(F)F)C2)c2[nH]c(N)c(S(=O)(=O)c3ccc(Cl)cc3F)c2n1` [Example 284, 7-(4-chloro-2-fluorobenzenesulfonyl)-2-methyl-4-[(2S)-2-(trifluoromethyl)morpholin-4-yl]-5H-pyrrolo[3,2-d]pyrimidin-6-amine]: the EC50 came to 2 nM.
In turn, `Cc1nc(N2CCO[C@H](C(F)(F)F)C2)c2[nH]c(N)c(S(=O)(=O)c3cccc(F)c3F)c2n1` [Example 285, 7-(2,3-difluorobenzenesulfonyl)-2-methyl-4-[(2S)-2-(trifluoromethyl)morpholin-4-yl]-5H-pyrrolo[3,2-d]pyrimidin-6-amine] yielded an EC50 of 2 nM.
`Cc1nc(N2CCO[C@@H](C(F)(F)F)C2)c2[nH]c(N)c(S(=O)(=O)c3cccc(F)c3F)c2n1` [Example 286, 7-(2,3-difluorobenzenesulfonyl)-2-methyl-4-[(2R)-2-(trifluoromethyl)morpholin-4-yl]-5H-pyrrolo[3,2-d]pyrimidin-6-amine] had an EC50 of 3 nM.
`Cc1nc(N2CCOC(C)(C)C2)c2[nH]c(N)c(S(=O)(=O)c3c(F)cccc3F)c2n1` [Example 287, 7-(2,6-difluorobenzenesulfonyl)-4-(2,2-dimethylmorpholin-4-yl)-2-methyl-5H-pyrrolo[3,2-d]pyrimidin-6-amine] had an EC50 of 9 nM.
With `Cc1nc(N2CCOC(C)(C)C2)c2[nH]c(N)c(S(=O)(=O)c3cc(F)ccc3F)c2n1` [Example 288, 7-(2,5-difluorobenzenesulfonyl)-4-(2,2-dimethylmorpholin-4-yl)-2-methyl-5H-pyrrolo[3,2-d]pyrimidin-6-amine], a half-maximal response (EC50) required 8 nM.
Regarding `Cc1nc(N2CCO[C@@H](C(F)(F)F)C2)c2[nH]c(N)c(S(=O)(=O)c3ccccc3F)c2n1` [Example 289, 7-(2-fluorobenzenesulfonyl)-2-methyl-4-[(2R)-2-(trifluoromethyl)morpholin-4-yl]-5H-pyrrolo[3,2-d]pyrimidin-6-amine], it took 1 nM to reach a half-maximal effect (EC50).
With `Cc1nc(N2CCO[C@@H](C(F)(F)F)C2)c2[nH]c(N)c(S(=O)(=O)c3cc(F)ccc3F)c2n1` [Example 291] the figure was 3 nM; with `Cc1nc(N2CCO[C@H](C(F)(F)F)C2)c2[nH]c(N)c(S(=O)(=O)c3cc(F)ccc3F)c2n1` [Example 292], 3 nM.
With `COc1ccc(S(=O)(=O)c2c(N)[nH]c3c(N4CCO[C@@H](C(F)(F)F)C4)nc(C)nc23)c(F)c1` [Example 293, 7-(2-fluoro-4-methoxybenzenesulfonyl)-2-methyl-4-[(2R)-2-(trifluoromethyl)morpholin-4-yl]-5H-pyrrolo[3,2-d]pyrimidin-6-amine] the figure was 2 nM; with `Cc1nc(N2CCO[C@H](C(F)(F)F)C2)c2[nH]c(N)c(S(=O)(=O)c3c(F)cccc3F)c2n1` [Example 294, 7-(2,6-Difluorobenzenesulfonyl)-2-methyl-4-[(2S)-2-(trifluoromethyl)morpholin-4-yl]-5H-pyrrolo[3,2-d]pyrimidin-6-amine], 4 nM; with `Cc1nc(N2CCO[C@@H](C(F)(F)F)C2)c2[nH]c(N)c(S(=O)(=O)c3c(F)cccc3F)c2n1` [Example 295, 7-(2,6-difluorobenzenesulfonyl)-2-methyl-4-[(2R)-2-(trifluoromethyl)morpholin-4-yl]-5H-pyrrolo[3,2-d]pyrimidin-6-amine], 3 nM.
With `Cc1nc(OC2CCCOC2(C)C)c2[nH]c(N)c(S(=O)(=O)c3ccccc3F)c2n1` (stereo not shown) [Example 296, 4-[(2,2-dimethyloxan-3-yl)oxy]-7-(2-fluorobenzenesulfonyl)-2-methyl-5H-pyrrolo[3,2-d]pyrimidin-6-amine] the figure was 53 nM; with `Cc1nc(N2CCO[C@@H](C(F)(F)F)C2)c2[nH]c(N)c(S(=O)(=O)c3ccc(Cl)cc3F)c2n1` [Example 297, 7-(4-chloro-2-fluorobenzenesulfonyl)-2-methyl-4-[(2R)-2-(trifluoromethyl)morpholin-4-yl]-5H-pyrrolo[3,2-d]pyrimidin-6-amine], 2 nM.
In the case of `CNc1nc(N2CCOC(C)C2)c2[nH]c(N)c(S(=O)(=O)c3ccccc3F)c2n1` (stereo not shown) [Example 298, 7-(2-fluorobenzenesulfonyl)-N2-methyl-4-(2-methylmorpholin-4-yl)-5H-pyrrolo[3,2-d]pyrimidine-2,6-diamine], it took 5 nM to reach a half-maximal effect (EC50).
With `Cc1nc(N2CCO[C@@H](CF)C2)c2[nH]c(N)c(S(=O)(=O)c3ccccc3F)c2n1` [Example 299, 7-(2-fluorobenzenesulfonyl)-4-[(2R)-2-(fluoromethyl)morpholin-4-yl]-2-methyl-5H-pyrrolo[3,2-d]pyrimidin-6-amine] the figure was 1 nM; with `Cc1nc(Nc2ccc(Cl)cc2)c2[nH]c(N)c(S(=O)(=O)c3ccccc3F)c2n1` [Example 300, N4-(4-chlorophenyl)-7-(2-fluorobenzenesulfonyl)-2-methyl-5H-pyrrolo[3,2-d]pyrimidine-4,6-diamine], 9 nM.
Take `CSc1nc(N2CCOC(C(F)(F)F)C2)c2[nH]c(N)c(S(=O)(=O)c3ccccc3F)c2n1` (stereo not shown) [Example 301, 7-(2-fluorobenzenesulfonyl)-2-(methylsulfanyl)-4-[2-(trifluoromethyl)morpholin-4-yl]-5H-pyrrolo[3,2-d]pyrimidin-6-amine]: the 50% effective concentration (EC50) came out at 14 nM.
In turn, `Nc1[nH]c2c(N3CCOC(C(F)(F)F)C3)ncnc2c1S(=O)(=O)c1ccccc1F` (stereo not shown) [Example 302, 7-(2-fluorobenzenesulfonyl)-4-[2-(trifluoromethyl)morpholin-4-yl]-5H-pyrrolo[3,2-d]pyrimidin-6-amine] came in with an EC50 of 2 nM.
With `Cc1nc(N2CCOC(C)(C(F)(F)F)C2)c2[nH]c(N)c(S(=O)(=O)c3ccccc3F)c2n1` (stereo not shown) [Example 303, 7-(2-fluorobenzenesulfonyl)-2-methyl-4-[2-methyl-2-(trifluoromethyl)morpholin-4-yl]-5H-pyrrolo[3,2-d]pyrimidin-6-amine] the figure was 3 nM.
